Measured values: publication PMC11173422, “Substitution-Induced Mechanistic Switching in SNAr-Warheads for Cysteine Proteases” (Molecules, 2024)
Where two headings read alike, the source gives them in different places.

Assays:
[1] = Parallel artificial membrane permeability assay (PAMPA); details: pH 7.4
Method: An artificial membrane consisting of phosphatidylcholine dissolved in n-dodecane was employed to control equilibration between two connected aqueous compartments, of which one contained the compound of interest. This model for compound permeation through a cell membrane was incubated, and the resulting concentration in the acceptor compartment was quantified spectroscopically.
A general literature-known principle was used [11]. Propranolol hydrochloride was sourced from Changzou Yabang Pharmaceutical (Fagron GmbH & Co. KG). Candesartan cilexetil was sourced as a chemical reference standard from the EDQM (catalogue code Y0001388).
Incubation setup consisted of donor (top) plate (Sigma Aldrich, MAIPNTR10), 5 µL artificial membrane
(1 % (w/v) L-α-phosphatidyl choline, Sigma Aldrich P3556, in n-dodecane, Sigma Aldrich 8205430100),
transparent measurement plate (Greiner UV-Star®, 655801), Tecan Spark 10M® well plate reader, 200 µL

[2] = cited from earlier work
rhodesain = rhodesain (Trypanosoma brucei rhodesiense, UniProt Q95PM0); parameters: stably transformed with the rhodesain ΔC gene cloned into the pPICZαA vector; made in house; host or cells: Pichia pastoris X-33 (pPICZαA, secreted into the culture supernatant); method as in PMID 32210166, PMID 34378914; details: cited from earlier work
Sequence of rhodesain (Q95PM0 entry or part of it): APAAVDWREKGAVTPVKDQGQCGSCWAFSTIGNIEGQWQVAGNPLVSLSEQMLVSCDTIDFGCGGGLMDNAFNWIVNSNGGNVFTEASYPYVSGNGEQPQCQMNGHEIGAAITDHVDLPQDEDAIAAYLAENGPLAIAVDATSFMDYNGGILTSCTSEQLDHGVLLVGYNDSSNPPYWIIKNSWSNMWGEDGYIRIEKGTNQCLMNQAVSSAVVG

Trypanosoma brucei = system: Trypanosoma brucei; parameters: method as in PMID 32210166; details: cell cultures, free acid; cited from earlier work
Rhodesain (TbCatL) = target: T1, Rhodesain (TbCatL) (Trypanosoma brucei rhodesiense, UniProt Q95PM0); details: lead compound, published data ref 17; cited from earlier work
T1 construct: stably transformed with the rhodesain ΔC gene cloned into the pPICZαA vector; made in house; host or cells: Pichia pastoris X-33 (pPICZαA, secreted into the culture supernatant)
T1 sequence (Q95PM0 entry or part of it): as above

[3] = Aqueous solubility observed in PAMPA set-up; type: physicochemical; details: buffered aqueous solution pH 7.4, 5% DMSO
Method: acceptor (bottom) plate (Greiner, 655074). Measurement setup for direct spectroscopy consisted of UV- […]
sample volume, λ = 200–650 nm. […]
elution (0.7 mL/min). Injection volume was 100 µL. Areas of peaks in the chromatogram (detection-λ = 210 nm) were used to calculate the AUCs. Retention time and mass spectrum recorded in positive ionization mode were used to assign species. Analysis was performed using MestreNova. […]
donor plate. This was sealed (Greiner, 676070, Viewseal sealer). 400 µL of acceptor solution was applied to the acceptor plate. Incubation setup was assembled and left for 7 h. After this time, acceptor and reference solutions were analyzed.
The acceptor solutions of those were measured
P௔௣௣ = −(௏ವ ା௏ಲ )∗஺∗௧ eq. 6

## CCOc1nc2cccc(C(=O)OC(C)OC(=O)OC3CCCCC3)c2n1Cc1ccc(-c2ccccc2-c2nnn[nH]2)cc1 (stereo not drawn) [Candesartan cilexetil, reference compound]
[1]
  Papp at 7 h, 100 µM: 1.3 ± 0.2 ×10⁻⁶ cm/s
[2]; literature value ref 37
  Lit. Papp: 0.6 [37] ×10^−6 cm/s

## CC(C)C[C@H](NC(=O)[C@H](Cc1ccccc1)Nc1cc([N+](=O)[O-])c([N+](=O)[O-])cc1F)C(=O)O [Compound I]
rhodesain
  Adduct with rhodesain in MALDI-TOF-MS: no adduct could be detected
Trypanosoma brucei
  EC50: 20 µM
Rhodesain (TbCatL)
  Ki: 0.004 ± 0.0013 µM

## CC(C)C[C@H](NC(=O)[C@H](Cc1ccccc1)Nc1ccc([N+](=O)[O-])c([N+](=O)[O-])c1)C(=O)OC(C)(C)C [Compound 20]
[1]
  Papp at 7 h, 100 µM: 9.3 ± 0.7 ×10⁻⁶ cm/s
[3]
  aqueous solubility: poor aqueous solubility

## CC(C)NCC(O)COc1cccc2ccccc12 (stereo not drawn) [Propranolol, reference compound]
[1]
  Papp at 7 h, 100 µM: 9.9 ± 1 ×10⁻⁶ cm/s
[2]; literature value ref 35, 36
  Lit. Papp: 8–14 [35, 36] ×10^−6 cm/s
